Consider eleven compounds from patent US10676485B2, “Macrocyclic MCL-1 inhibitors and methods of use” (AbbVie Inc., priority 2017, dated 2020).

Like-named read-outs stand apart in the source and are kept apart here.

For assay [1], the system named is NCI-H929 human multiple myeloma tumor cell line. Nature of the assay: NCI-H929 cell viability assay (CellTiter-Glo). In kind it is cell-based. The settings on record: NCI-H929, read-out: H929 Viability IC50 (μM), 10% FBS, 24 hours of compound treatment.
Assay [2] relates to AMO-1 human multiple myeloma tumor cell line. As to the kind of experiment: AMO-1 cell viability assay (CellTiter-Glo). The settings on record: AMO1, read-out: AMO-1 Viability IC50 (μM), 10% FBS, 24 hours of compound treatment. In kind it is cell-based.
Method: In one exemplary set of conditions, NCI-H929 or AMO-1 (ATCC. Manassas, Va.) were plated 4.000 cells per well in 384-well tissue culture plates (Corning. Corning, N.Y.) in a total volume of 25 μL RPMI tissue culture medium supplemented with 10% fetal bovine serum (Sigma-Aldrich, St. Louis, Mo.) and treated with a 3-fold serial dilution of the compounds of interest with a Labcyte Echo from a final concentration of 10 μM to 0.0005 μM. Each concentration was tested in duplicate at least 3 independent times. A luminescent signal proportional to the number of viable cells following 24 hours of compound treatment was determined using the CellTiter-Glo® Luminescent Cell Viability Assay according to the manufacturer's recommendations (Promega Corp., Madison, Wis.). The plates were read in a Perkin Elmer Envision using a Luminescence protocol. To generate dose response curves the data is normalized to percent viability by setting the averages of the staurosporine (10 uM) and DMSO only control wells to 0% and (00)% viability respectively. The IC50 values for the compounds are generated by fitting the normalized data with Accelrys Assay Explorer 3.3 to a sigmoidal curve model using linear regression.
The next assay deals with GST-MCL-1 (Homo sapiens (Human), UniProt Q07820). As to the kind of experiment: TR-FRET MCL-1 binding assay (competition with probe F-Bak). As for the experimental part: For the assay, an acoustic dispenser was used to prepare dilution series from 10 mM test compounds in 100% DMSO and directly transfer 160 nL into low volume 384-well assay plates. 8 μL of a protein/probe/antibody mix was then added to each well resulting in final concentrations listed below: Test compound: 11 three-fold dilutions beginning at 25 μM
GST-MCL-1, sequence (Q07820 whole entry): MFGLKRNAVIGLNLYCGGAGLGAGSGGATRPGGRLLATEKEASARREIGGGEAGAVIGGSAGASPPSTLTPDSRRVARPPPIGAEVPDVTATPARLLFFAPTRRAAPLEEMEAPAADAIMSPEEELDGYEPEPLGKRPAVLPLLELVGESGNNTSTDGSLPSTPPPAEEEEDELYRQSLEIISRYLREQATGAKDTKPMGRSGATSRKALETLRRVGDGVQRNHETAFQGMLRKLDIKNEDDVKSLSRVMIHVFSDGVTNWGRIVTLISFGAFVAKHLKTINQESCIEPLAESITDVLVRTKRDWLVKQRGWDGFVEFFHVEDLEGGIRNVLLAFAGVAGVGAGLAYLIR
The samples were then mixed on a shaker for 1 minute and incubated for an additional 2 hours at room temperature. For each assay plate, a probe/antibody and protein/antibody/probe mixture were included as a negative and a positive control, respectively. Fluorescence was measured on the Envision (Perkin Elmer) using a 340/35 nm excitation filter and 520/525 (F-Bak) and 495/510 nm (Tb-labeled anti-his antibody) emission filters. […] The TR-FRET assay can be performed in the presence of varying concentrations of human serum (HS) or fetal bovine serum (FBS). Compounds were tested both without HS and in the presence of 10% HS.

Where [3] appears, read: read-out: MCL-1 Binding Ki (nM, 10% HS), in the presence of 10% HS.
Setting [4] is: without HS, read-out: MCL-1 Binding Ki.

As for `COc1ccccc1-c1nccc(COc2ccc3cc2C[C@H](C(=O)O)Oc2ncnc4sc(C5=COCCO5)c(c24)-c2c(C)c(Cl)c(c(Cl)c2C)O[C@H](CN2CCN(C)CC2)CO3)n1` [Example 27, (7R,16R)-19,23-dichloro-1-(5,6-dihydro-1,4-dioxin-2-yl)-10-{[2-(2-methoxyphenyl)pyrimidin-4-yl]methoxy}-20,22-dimethyl-16-[(4-methylpiperazin-1-yl)methyl]-7,8,15,16-tetrahydro-18,21-etheno-13,9-(metheno)-6,14,17-trioxa-2-thia-3,5-diazacyclononadeca[1,2,3-cd]indene-7-carboxylic acid], the IC50 in assay [1] was 0.0015 µM; in assay [2], 435 pM. For the same compound, the Ki on GST-MCL-1 (setting [3]) worked out at 0.02 nM; on GST-MCL-1 (setting [4]), 0.008 nM.

With `Cc1c(Cl)c2c(Cl)c(C)c1-c1c(-c3ccc(F)cc3)sc3ncnc(c13)O[C@@H](C(=O)O)Cc1cc(ccc1OCc1ccnc([C@H]3CC[C@](F)(COC[C@@H]4COCCO4)CC3)n1)OC[C@@H](CN1CCN(C)CC1)O2` [Example 28, (7R,16R)-19,23-dichloro-10-({2-[(1R,4s)-4-({[(2S)-1,4-dioxan-2-yl]methoxy}methyl)-4-fluorocyclohexyl]pyrimidin-4-yl}methoxy)-1-(4-fluorophenyl)-20,22-dimethyl-16-[(4-methylpiperazin-1-yl)methyl]-7,8,15,16-tetrahydro-18,21-etheno-13,9-(metheno)-6,14,17-trioxa-2-thia-3,5-diazacyclononadeca[1,2,3-cd]indene-7-carboxylic acid], the IC50 is 0.000337 µM in assay [1] and 211 pM in assay [2]. For the same compound, the Ki at GST-MCL-1 (setting [3]) was 0.18 nM; on GST-MCL-1 (setting [4]), 0.017 nM.

On to `Cc1c(Cl)c2c(Cl)c(C)c1-c1c(C3CCC3)sc3ncnc(c13)O[C@@H](C(=O)O)Cc1cc(ccc1OCc1ccnc([C@H]3CC[C@H](OCC4COCCO4)CC3)n1)OC[C@@H](CN1CCN(C)CC1)O2` (stereo partly drawn) [Example 29, (7R,16R)-19,23-dichloro-1-cyclobutyl-10-[(2-{(1r,4r)-4-[(1,4-dioxan-2-yl)methoxy]cyclohexyl}pyrimidin-4-yl)methoxy]-20,22-dimethyl-16-[(4-methylpiperazin-1-yl)methyl]-7,8,15,16-tetrahydro-18,21-etheno-13,9-(metheno)-6,14,17-trioxa-2-thia-3,5-diazacyclononadeca[1,2,3-cd]indene-7-carboxylic acid], for which the IC50 came to 0.000346 µM in assay [1] and 81.2 pM in assay [2]. The results for the Ki on GST-MCL-1 (setting [3]) and on GST-MCL-1 (setting [4]) were 0.55 nM and 0.011 nM, respectively.

Take `Cc1c(Cl)c2c(Cl)c(C)c1-c1c(-c3ccc(F)cc3)sc3ncnc(c13)O[C@@H](C(=O)O)Cc1cc(ccc1OCc1ccnc(C3COCCOC3)n1)OC[C@@H](CN1CCN(C)CC1)O2` [Example 30, (7R,16R)-19,23-dichloro-10-{[2-(1,4-dioxepan-6-yl)pyrimidin-4-yl]methoxy}-1-(4-fluorophenyl)-20,22-dimethyl-16-[(4-methylpiperazin-1-yl)methyl]-7,8,15,16-tetrahydro-18,21-etheno-13,9-(metheno)-6,14,17-trioxa-2-thia-3,5-diazacyclononadeca[1,2,3-cd]indene-7-carboxylic acid]: the IC50 was 0.000974 µM in assay [1] and 285 pM in assay [2]. The Ki on GST-MCL-1 (setting [3]) turned out to be 0.16 nM; at GST-MCL-1 (setting [4]), 0.015 nM.

For the compound `Cc1c(Cl)c2c(Cl)c(C)c1-c1c(-c3ccc(F)cc3)sc3ncnc(c13)O[C@@H](C(=O)O)Cc1cc(ccc1OCc1cc(-c3ccc(OC[C@H]4COCCO4)cc3)ncn1)OC[C@@H](CN1CCN(C)CC1)O2` [Example 31, (7R,16R)-19,23-dichloro-10-{[6-(4-{[(2R)-1,4-dioxan-2-yl]methoxy}phenyl)pyrimidin-4-yl]methoxy}-1-(4-fluorophenyl)-20,22-dimethyl-16-[(4-methylpiperazin-1-yl)methyl]-7,8,15,16-tetrahydro-18,21-etheno-13,9-(metheno)-6,14,17-trioxa-2-thia-3,5-diazacyclononadeca[1,2,3-cd]indene-7-carboxylic acid], the 50% inhibitory concentration (IC50) worked out at 0.011 µM in assay [1] and 4190 pM in assay [2]. In addition, the results for the Ki on GST-MCL-1 (setting [3]) and at GST-MCL-1 (setting [4]) were 5.27 nM and 0.373 nM, respectively.

As to `Cc1c(Cl)c2c(Cl)c(C)c1-c1c(C3=CCCC3)sc3ncnc(c13)O[C@@H](C(=O)O)Cc1cc(ccc1OCc1ccnc([C@H]3CC[C@H](OCC4COCCO4)CC3)n1)OC[C@@H](CN1CCN(C)CC1)O2` (stereo partly drawn) [Example 32, (7R,16R)-19,23-dichloro-1-(cyclopent-1-en-1-yl)-10-[(2-{(1r,4r)-4-[(1,4-dioxan-2-yl)methoxy]cyclohexyl}pyrimidin-4-yl)methoxy]-20,22-dimethyl-16-[(4-methylpiperazin-1-yl)methyl]-7,8,15,16-tetrahydro-18,21-etheno-13,9-(metheno)-6,14,17-trioxa-2-thia-3,5-diazacyclononadeca[1,2,3-cd]indene-7-carboxylic acid], the IC50 in assay [1] came to 0.000296 µM; in assay [2], 170 pM. Also, the values for the inhibition constant (Ki) on GST-MCL-1 (setting [3]) and at GST-MCL-1 (setting [4]) were 0.27 nM and 0.022 nM, respectively.

`Cc1c(Cl)c2c(Cl)c(C)c1-c1c(C3=CCCC3)sc3ncnc(c13)O[C@@H](C(=O)O)Cc1cc(ccc1OCc1ccnc([C@H]3CC[C@](F)(COC[C@@H]4COCCO4)CC3)n1)OC[C@@H](CN1CCN(C)CC1)O2` [Example 33, (7R,16R)-19,23-dichloro-1-(cyclopent-1-en-1-yl)-10-({2-[(1R,4s)-4-({[(2S)-1,4-dioxan-2-yl]methoxy}methyl)-4-fluorocyclohexyl]pyrimidin-4-yl}methoxy)-20,22-dimethyl-16-[(4-methylpiperazin-1-yl)methyl]-7,8,15,16-tetrahydro-18,21-etheno-13,9-(metheno)-6,14,17-trioxa-2-thia-3,5-diazacyclononadeca[1,2,3-cd]indene-7-carboxylic acid]: the IC50 in assay [1] amounted to 0.000586 µM; in assay [2], 222 pM. Also, the Ki at GST-MCL-1 (setting [3]) turned out to be 0.3 nM; at GST-MCL-1 (setting [4]), 0.023 nM.

Turning to `Cc1c(Cl)c2c(Cl)c(C)c1-c1c(C3=CCCC3)sc3ncnc(c13)O[C@@H](C(=O)O)Cc1cc(ccc1OCc1ccnc(C3=CC[C@](F)(COC[C@H]4COCCO4)CC3)n1)OC[C@@H](CN1CCN(C)CC1)O2` [Example 34, (7R,16R)-19,23-dichloro-1-(cyclopent-1-en-1-yl)-10-({2-[(4S)-4-({[(2R)-1,4-dioxan-2-yl]methoxy}methyl)-4-fluorocyclohex-1-en-1-yl]pyrimidin-4-yl}methoxy)-20,22-dimethyl-16-[(4-methylpiperazin-1-yl)methyl]-7,8,15,16-tetrahydro-18,21-etheno-13,9-(metheno)-6,14,17-trioxa-2-thia-3,5-diazacyclononadeca[1,2,3-cd]indene-7-carboxylic acid], the IC50 in assay [1] is 0.001 µM; in assay [2] it was 235 pM. Further, the Ki came to 0.54 nM on GST-MCL-1 (setting [3]) and 0.03 nM on GST-MCL-1 (setting [4]).

On to `Cc1c(Cl)c2c(Cl)c(C)c1-c1c(C3=CCCC3)sc3ncnc(c13)O[C@@H](C(=O)O)Cc1cc(ccc1OCc1ccnc(C3=CC[C@](F)(COC[C@@H]4COCCO4)CC3)n1)OC[C@@H](CN1CCN(C)CC1)O2` [Example 35, (7R,16R)-19,23-dichloro-1-(cyclopent-1-en-1-yl)-10-({2-[(4S)-4-({[(2S)-1,4-dioxan-2-yl]methoxy}methyl)-4-fluorocyclohex-1-en-1-yl]pyrimidin-4-yl}methoxy)-20,22-dimethyl-16-[(4-methylpiperazin-1-yl)methyl]-7,8,15,16-tetrahydro-18,21-etheno-13,9-(metheno)-6,14,17-trioxa-2-thia-3,5-diazacyclononadeca[1,2,3-cd]indene-7-carboxylic acid], for which the IC50 in assay [1] stood at 0.00111 µM; in assay [2], 261 pM. The inhibition constant (Ki) came out at 0.52 nM on GST-MCL-1 (setting [3]) and 0.027 nM at GST-MCL-1 (setting [4]).

Turning to `Cc1c(Cl)c2c(Cl)c(C)c1-c1c(-c3ccc(F)cc3)sc3ncnc(c13)O[C@@H](C(=O)O)Cc1cc(ccc1OCc1ccnc(-c3ccc(NC[C@H]4COCCO4)nc3)n1)OC[C@@H](CN1CCN(C)CC1)O2` [Example 36, (7R,16R)-19,23-dichloro-10-({2-[6-({[(2S)-1,4-dioxan-2-yl]methyl}amino)pyridin-3-yl]pyrimidin-4-yl}methoxy)-1-(4-fluorophenyl)-20,22-dimethyl-16-[(4-methylpiperazin-1-yl)methyl]-7,8,15,16-tetrahydro-18,21-etheno-13,9-(metheno)-6,14,17-trioxa-2-thia-3,5-diazacyclononadeca[1,2,3-cd]indene-7-carboxylic acid], the figures for the IC50 in assay [1] and in assay [2] were 0.000183 µM and 48.8 pM, respectively. In addition, the Ki worked out at 0.05 nM on GST-MCL-1 (setting [3]) and 0.001 nM at GST-MCL-1 (setting [4]).

As for `Cc1c(Cl)c2c(Cl)c(C)c1-c1c(C3=CCCC3)sc3ncnc(c13)O[C@@H](C(=O)O)Cc1cc(ccc1OCc1ccnc([C@H]3CC[C@@](F)(COC[C@@H]4COCCO4)CC3)n1)OC[C@@H](CN1CCN(C)CC1)O2` [Example 37, (7R,16R)-19,23-dichloro-1-(cyclopent-1-en-1-yl)-10-({2-[(1S,4r)-4-({[(2S)-1,4-dioxan-2-yl]methoxy}methyl)-4-fluorocyclohexyl]pyrimidin-4-yl}methoxy)-20,22-dimethyl-16-[(4-methylpiperazin-1-yl)methyl]-7,8,15,16-tetrahydro-18,21-etheno-13,9-(metheno)-6,14,17-trioxa-2-thia-3,5-diazacyclononadeca[1,2,3-cd]indene-7-carboxylic acid], the IC50 in assay [1] stood at 0.00053 µM; in assay [2], 187 pM. The Ki came to 0.63 nM on GST-MCL-1 (setting [3]) and 0.051 nM on GST-MCL-1 (setting [4]).
